Test results reported in BindingDB's records for doi:10.7270/Q2H70D7S (Burnham Center For Chemical Genomics, 2010).
pIC50: −log10 of the molar value.

Target: Kappa-type opioid receptor (Homo sapiens, UniProt P41145)
Test: kappa opioid receptor blockers, cell-based, luminescence, beta-arrestin, SAR follow-up (AID 2285)

Chain of Kappa-type opioid receptor (P41145 whole entry): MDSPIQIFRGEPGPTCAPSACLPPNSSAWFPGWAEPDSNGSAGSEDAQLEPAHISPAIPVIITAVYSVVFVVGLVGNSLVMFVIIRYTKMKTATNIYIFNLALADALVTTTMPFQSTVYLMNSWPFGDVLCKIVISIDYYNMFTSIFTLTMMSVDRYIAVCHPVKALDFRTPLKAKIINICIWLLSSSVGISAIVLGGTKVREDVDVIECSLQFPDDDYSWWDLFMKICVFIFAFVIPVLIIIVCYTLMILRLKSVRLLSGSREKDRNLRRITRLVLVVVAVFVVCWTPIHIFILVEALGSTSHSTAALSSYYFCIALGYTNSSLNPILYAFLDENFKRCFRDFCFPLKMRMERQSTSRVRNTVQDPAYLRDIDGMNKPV

Row | SMILES | pIC50
1 | CCC(N=Nc1ccnc2cc(Cl)ccc12)c1ccc(O)cc1 (configuration not stated) [4-[1-[2-(7-chloroquinolin-4-yl)hydrazinyl]propylidene]cyclohexa-2,5-dien-1-one] | 5.45
2 | Oc1ccc(CN=Nc2ccnc3cc(Cl)ccc23)cc1O [(4Z)-4-[[2-(7-chloroquinolin-4-yl)hydrazinyl]methylidene]-2-hydroxycyclohexa-2,5-dien-1-one] | 5.00
